Measured values from PubChem BioAssay AID449762 (Southern Research Specialized Biocontainment Screening …, 2010).
Inconclusive results are not listed.

system: M. tuberculosis H37Rv growth inhibition, 7H9 media; assay: M. tuberculosis growth inhibition, HTS (AID 449762);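 note: bacterial growth assessed after seven days of incubation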

`O=C(c1cc2nc(-c3ccc(F)cc3)cc(C(F)(F)F)n2n1)N1CCCCC1c1cccnc1` (stereo not given) was tested. Which IC50 did it give?
Its IC50 is 14 µM.

Which IC50 does the source give for `Cc1ccc(NC(=O)COC(=O)C(NS(=O)(=O)c2ccc(Cl)cc2)C(C)O)cc1C` (stereo not given) here?
Its IC50 is 2.17 µM.

With `CCCCn1c(=O)c(C(=O)Nc2ncccc2C)c(O)c2ccccc21` as the compound, how does the IC50 read?
The IC50 was 10.3 µM.

Which IC50 does the source give for `Cc1ccc(C(=O)O/N=C\c2ccc(N3CCCCC3)c([N+](=O)[O-])c2)cc1` here?
The IC50 was 22.1 µM.

For `CCNc1nc(Nc2ccc(C)c(Cl)c2)c2cnn(C)c2n1`, which IC50 is on record?
Its IC50 is 43.3 µM.

With `CCNc1nc(NCC)nc(N/N=C/c2ccc([N+](=O)[O-])o2)n1` as the compound, how does the IC50 read?
Its IC50 is 0.99 µM.

For `Cc1ccc(OCCCCNC2CCCC(C)C2C)c(C)c1` (stereo not given), which IC50 is on record?
The IC50 was 21.8 µM.

With `CCOc1cc2c(cc1OCC)-n1cccc1C(c1ccc(C(C)C)cc1)NC2` (stereo not given) as the compound, how does the IC50 read?
Its IC50 is 20.6 µM.

With `CCNCC(=O)N1c2ccccc2CCc2ccc(NC(=O)OC(C)C)cc21` as the compound, how does the IC50 read?
The IC50 was 55.9 µM.

Which IC50 does the source give for `Nc1cc(C(=O)OCC(=O)NNC(=O)c2cccs2)ccc1Cl` here?
Its IC50 is 64.2 µM.

With `Cc1nc(SCC(=O)NCC2CCCO2)c2c3c(sc2n1)CCCC3` (stereo not given) as the compound, how does the IC50 read?
The IC50 was 22.2 µM.

With `O=[N+]([O-])c1cc([N+](=O)[O-])c2cc3ccccc3nc2c1` as the compound, how does the IC50 read?
Its IC50 is less than 0.2 µM.

Which IC50 does the source give for `CCC1CSC(Nc2ccc(C(=O)/C=C/c3cccc(C)c3)cc2)=N1` (stereo not given) here?
The IC50 was 18.9 µM.

`O=C(CSC(=S)N1CCCC1)c1cc(Br)cc(Br)c1O` was tested. Which IC50 did it give?
The IC50 was 23.9 µM.

How did the IC50 turn out when `CCOC(=O)C1CCN(c2nc3cc(OC)ccc3cc2C#N)CC1` was run?
The IC50 was 52.7 µM.

How did the IC50 turn out when `Cn1nc(C(F)(F)F)c2cc(NC(=O)OCC(C)(C)C)sc21` was run?
The IC50 was 13.2 µM.

With `O=C(/C=C/c1ccco1)Nc1cccc(-c2nc3ccccc3[nH]2)c1` as the compound, how does the IC50 read?
Its IC50 is 78.5 µM.

With `CCc1ccc(NC(=O)c2ccc(C3SCC(=O)N3CCc3ccccc3)cc2)cc1` (stereo not given) as the compound, how does the IC50 read?
The IC50 was 97.5 µM.

How did the IC50 turn out when `O=C1C(Cl)=C(N2CCOCC2)C(=O)N1c1cccc(Cl)c1` was run?
Its IC50 is 3.48 µM.

Which IC50 does the source give for `CCc1cccc2c(C(=O)CCl)c[nH]c12` here?
The IC50 was 0.78 µM.

Which IC50 does the source give for `COc1ccc(C2CC(=O)C3=C(C2)NC(C)=C(C#N)C3c2ccc(N(C)C)cc2)cc1` (stereo not given) here?
The IC50 was 19.6 µM.

For `CC(C(Sc1ccccc1N)c1ccccc1)[N+](=O)[O-]` (stereo not given), which IC50 is on record?
Its IC50 is 19.4 µM.

With `O=C(/C=C/c1ccccc1)N1CCN(CCN2C(=O)c3cccc4cccc(c34)C2=O)CC1` as the compound, how does the IC50 read?
The IC50 was 1.95 µM.

For `CCc1cc(/C(Cc2ccccn2)=N\Nc2ccccc2)c(O)cc1O`, which IC50 is on record?
Its IC50 is 60.5 µM.

Which IC50 does the source give for `c1ccc(CN2CCC(Nc3nc(-c4ccccc4)nc4ccccc34)CC2)cc1` here?
Its IC50 is 10.3 µM.

How did the IC50 turn out when `CCCCCn1c(=O)c2ccccc2n2c(CCl)nnc12` was run?
Its IC50 is 0.48 µM.

With `Cn1cnnc1SCc1ccc(C(=O)N=Nc2c(O)n(Cc3ccc(Cl)cc3)c3ccccc23)cc1` as the compound, how does the IC50 read?
The IC50 was 2.97 µM.

Which IC50 does the source give for `Cc1c(NC(=O)c2ccc([N+](=O)[O-])o2)cccc1-c1nc2ncccc2o1` here?
The IC50 was 8.36 µM.

`CN(C)c1ccc(-c2cc(O)c3ncccc3c2)cc1` was tested. Which IC50 did it give?
The IC50 was 2.55 µM.

With `Cc1ccc(C(=O)Nc2cccc(C(F)(F)F)c2)cc1Nc1ncnc2nc[nH]c12` as the compound, how does the IC50 read?
The IC50 was 50 µM.

How did the IC50 turn out when `CCN(CC)c1ccc(/C=C2\SC(=O)N(C(C)C)C2=O)o1` was run?
Its IC50 is 1.34 µM.

How did the IC50 turn out when `CN(C)CCOc1nc(-c2ccccc2)nc2c1oc1ccccc12` was run?
Its IC50 is 11.8 µM.

Which IC50 does the source give for `COc1cccc2c1C(CO)N1C(C#N)C3CC(C(=O)O)C(C1C2)N3C` (stereo not given) here?
Its IC50 is 2.69 µM.

For `Cc1cc(-c2ccc(Cl)cc2)c2cnn(C(C)C)c2n1`, which IC50 is on record?
The IC50 was 25.5 µM.

`CCc1nc2ccccc2c(C(=O)Nc2cc(C)ccc2C)c1C` was tested. Which IC50 did it give?
The IC50 was 13 µM.

How did the IC50 turn out when `Cc1cccc(OCC(=O)NNC(=O)c2cc3ccccc3oc2=O)c1` was run?
Its IC50 is 25.4 µM.

Which IC50 does the source give for `Cc1ccc(C(=O)c2oc3ccc(Cl)cc3c2NC(=O)CN2CCN(C)CC2)cc1` here?
The IC50 was 14.6 µM.

For `c1ccc(-c2c3ccccc3nc3[nH]c4ccccc4c23)cc1`, which IC50 is on record?
The IC50 was 63.1 µM.

How did the IC50 turn out when `O=C(/C(=C/c1ccc(Cl)cc1)c1nc2ccccc2[nH]1)c1cccs1` was run?
The IC50 was 21.2 µM.

How did the IC50 turn out when `CCOC(=O)c1c(NC(=O)CCl)sc(CN(C)C)c1-c1ccccc1` was run?
The IC50 was 0.92 µM.

`Cc1cc(C)n2[nH]c(=O)c(N=Nc3cccc(C(F)(F)F)c3)c2n1` was tested. Which IC50 did it give?
The IC50 was 86.5 µM.

`COc1ccccc1C(=O)NC(=S)/C=C1/N(C)c2ccccc2C1(C)C` was tested. Which IC50 did it give?
Its IC50 is 34.4 µM.

`CCOc1ccc(N=CC2=C(O)CC(c3ccco3)CC2=O)cc1` (stereo not given) was tested. Which IC50 did it give?
Its IC50 is 80.4 µM.

For `C=CCOc1ccc(C2=NOC(C(=O)Nc3ccc4c(c3)OCCO4)C2)cc1` (stereo not given), which IC50 is on record?
The IC50 was 12.8 µM.

How did the IC50 turn out when `COc1ccccc1/C(C)=N/NC(=S)NCc1ccccc1` was run?
Its IC50 is 23.3 µM.

Which IC50 does the source give for `CC(C)(C)NC(=O)[C@@H]1C[C@@H]2CCCC[C@@H]2CN1C[C@@H](O)[C@H](Cc1ccccc1)NC(=O)[C@H](CC(N)=O)NC(=O)c1ccc2ccccc2n1` here?
Its IC50 is 40.1 µM.

`CC(C)CCC[C@@H](C)[C@H]1CC[C@H]2[C@@H]3C(=O)C=C4C[C@@H](O)CC[C@]4(C)[C@H]3CC[C@]12C` was tested. Which IC50 did it give?
The IC50 was 43.3 µM.

With `c1ccc(/N=C2\N=C(Nc3ccccn3)c3ccccc32)nc1` as the compound, how does the IC50 read?
The IC50 was 1.08 µM.

Which IC50 does the source give for `NC(N)=N/N=C/c1ccc(N(c2ccccc2)c2ccccc2)cc1` here?
Its IC50 is 10.9 µM.

`O=C(COc1cccc(Oc2ccccc2)c1)Nc1ncccn1` was tested. Which IC50 did it give?
Its IC50 is 37.7 µM.

For `C=CC[n+]1ccn(-c2nc3ccccc3nc2[N-]S(=O)(=O)c2cccs2)c1`, which IC50 is on record?
The IC50 was 25 µM.

For `O=C(N/N=C\c1ccc[nH]1)c1cncc(Br)c1`, which IC50 is on record?
Its IC50 is 25.2 µM.

For `CC(C)(C)c1ccc(Cn2nnc3c(=O)[nH]c(C4CCCN(C(=O)Cc5cccs5)C4)nc32)cc1` (stereo not given), which IC50 is on record?
Its IC50 is 35.2 µM.

With `COc1ccc(CNc2ncnc3c2[nH]c2cc(OC)c(OC)cc23)cc1` as the compound, how does the IC50 read?
The IC50 was 5.2 µM.

For `CN(/N=C/c1cc(Br)cc(Br)c1O)c1cccc(C(F)(F)F)n1`, which IC50 is on record?
The IC50 was 3.93 µM.

`CCCc1cc(=O)n2[nH]c(C)c(-c3ccc(Cl)cc3)c2n1` was tested. Which IC50 did it give?
The IC50 was 6.8 µM.

`COc1cc(NC(=O)C/C(C)=N/NC(=O)c2ccccn2)c(OC)cc1Cl` was tested. Which IC50 did it give?
Its IC50 is 3 µM.

`CCOC(=O)c1c(C)n(-c2ccc(C)cc2)c2ccc(OCC(O)CNCC3CCCO3)cc12` (stereo not given) was tested. Which IC50 did it give?
The IC50 was 22.7 µM.

With `CC1CCC/C(=N\NC(=S)Nc2ccccc2)C1` (stereo not given) as the compound, how does the IC50 read?
Its IC50 is 43.2 µM.

With `CCOc1ccc(OCCSc2ccc(S(=O)(=O)N3CCN(C)CC3)cn2)cc1` as the compound, how does the IC50 read?
Its IC50 is 22.1 µM.

`COc1ccc(C[C@H]2CN3C(=NC[C@H]3Cc3ccccc3)N2CCNC(=O)CCC2CCCCC2)cc1` was tested. Which IC50 did it give?
Its IC50 is 16.8 µM.

With `O=C(NNC1CC(=O)N(c2ccc(Br)cc2)C1=O)c1ccccn1` (stereo not given) as the compound, how does the IC50 read?
Its IC50 is 5.9 µM.

Which IC50 does the source give for `C[C@]12CC[C@@H]3c4ccc(O)cc4CC[C@H]3[C@@H]1CC[C@@H]2OC(=O)CCC1CCCC1` here?
Its IC50 is 6.41 µM.

How did the IC50 turn out when `Cc1ccc(C)c(-c2nnc(NC(=O)C3=COCCO3)o2)c1` was run?
The IC50 was 5.33 µM.

How did the IC50 turn out when `CCOC1OC(=O)C(Cl)=C1Nc1ccccc1C` (stereo not given) was run?
The IC50 was 2.91 µM.

For `CC/C(C)=N/NC(=S)NCc1ccco1`, which IC50 is on record?
Its IC50 is 47.5 µM.

Which IC50 does the source give for `Cc1ccc(-c2c[n+](CC(=O)N3c4ccccc4Sc4ccccc43)c3n2CCC3)cc1` here?
Its IC50 is 12.9 µM.

For `CCC(=O)Oc1ccc(C(=O)Nc2ccc3c(c2)C(=O)N(C2CCCCC2)C3=O)cc1`, which IC50 is on record?
Its IC50 is 21.2 µM.

How did the IC50 turn out when `C[N+](C)(CCCCCC[N+](C)(C)CCCN1C(=O)c2cccc3cccc(c23)C1=O)CCCN1C(=O)c2cccc3cccc(c23)C1=O` was run?
Its IC50 is 2.59 µM.

For `O=[N+]([O-])c1c(C(Cl)Cl)nn(-c2ccc(Cl)cc2)c1N1CCCCC1`, which IC50 is on record?
Its IC50 is 15.6 µM.

`CC1=NNC(=O)/C1=C\c1cn(-c2ccccc2)nc1-c1ccc(Cl)cc1` was tested. Which IC50 did it give?
Its IC50 is 28.7 µM.

With `CC(=O)N1CCN(c2ccc(Oc3ccc([N+](=O)[O-])c(C(F)(F)F)c3)cc2)CC1` as the compound, how does the IC50 read?
Its IC50 is 7.54 µM.

`COC(=O)CCn1c(C)cc(C(=O)COc2ccccc2C(N)=O)c1C` was tested. Which IC50 did it give?
The IC50 was 10.2 µM.

With `Cc1ccc2nc(N/N=C/c3ccccc3C#N)nc(-c3ccccc3)c2c1` as the compound, how does the IC50 read?
Its IC50 is 81.1 µM.

`O=c1/c(=C\c2ccc(O)cc2)sc2n1C(c1ccccc1)C(c1ccccc1)=NN=2` (stereo not given) was tested. Which IC50 did it give?
Its IC50 is 55.7 µM.

How did the IC50 turn out when `O=C1C(SCCO)=C(SCCO)C(=O)c2ccccc21` was run?
Its IC50 is 6.06 µM.

For `Cc1ccccc1NC1=C/C(=N\S(=O)(=O)c2cccs2)c2ccccc2C1=O`, which IC50 is on record?
Its IC50 is 7.97 µM.

`C=C1C(=O)O[C@@H]2C[C@@H](C)[C@@H]3C4OC4C(=O)[C@@]3(C)[C@@H](O)[C@H]12` (stereo not given in full) was tested. Which IC50 did it give?
The IC50 was 3.64 µM.

For `CCn1cnc2sc(C(=O)Oc3ccc(Br)cc3)c(C)c2c1=O`, which IC50 is on record?
Its IC50 is 3.2 µM.

For `Cc1csc(NC(=O)CCCC(=O)O)c1-c1nc2ccccc2s1`, which IC50 is on record?
Its IC50 is 35.8 µM.

With `O=C1C=C(c2ccc3[nH]ccc3c2)C[C@@H](c2ccc(Cl)cc2)C1` as the compound, how does the IC50 read?
The IC50 was 75.3 µM.

`Cc1ccccc1N1CCN(C(=O)c2ccc(Oc3ccc(C(F)(F)F)cn3)cc2)CC1` was tested. Which IC50 did it give?
The IC50 was 24.4 µM.

Which IC50 does the source give for `CCNc1nc(NC(C)(C)C)nc(N2CCCCC2)n1` here?
The IC50 was 99.6 µM.

Which IC50 does the source give for `O=C(NC1CCN(Cc2ccccc2)CC1)c1cccc(S(=O)(=O)Nc2ccc(SC(F)F)cc2)c1` here?
Its IC50 is 15.5 µM.

How did the IC50 turn out when `COc1ccc(N2C(=O)C(Cl)=C(Nc3ccccc3O)C2=O)cc1` was run?
The IC50 was 14.2 µM.
